Measured values as given in ChEMBL document CHEMBL3779897, “Novel quinoline-derived mTOR inhibitors with remarkable enzymatic and cellular activities: design, synthesis and biological evaluation” (Medchemcomm, 2016).
The source made the active and inactive calls. No cut-off for these calls is given here.

Columns and labels:
MCF7 [1] = experiment: cells; details: Homo sapiens, MCF7, 72 h
cells [2] = details: Homo sapiens, PC-3, 72 h
cells [3] = details: Homo sapiens, HCT-116, 72 h
[4] = biological target: T1, Serine/threonine-protein kinase mTOR (Homo sapiens, UniProt P42345); experiment: Inhibition of human mTOR using ULight-4E-BP1 peptide as substrate after 1 hr by Lance ultra assay
[5] = Stability in simulated gastric fluid after 45 mins; assay type: ADME; details: simulated gi fluid, 0.75 h
[6] = Stability in simulated intestinal fluid after 45 mins; assay type: ADME; details: simulated gi fluid, 0.75 h
Liver microsome = experiment: Stability in rat liver microsomes after 30 mins; assay type: ADME; details: 0.5 h
[7] = biological target: T2, Phosphatidylinositol 4,5-bisphosphate 3-kinase catalytic subunit beta isoform (Homo sapiens, UniProt P42338); experiment: Inhibition of PI3Kbeta (unknown origin) at 1 uM after 1 hr by ADP-Glo luminescent assay
Target sequence in this assay (P42338 whole entry, looked up, canonical isoform): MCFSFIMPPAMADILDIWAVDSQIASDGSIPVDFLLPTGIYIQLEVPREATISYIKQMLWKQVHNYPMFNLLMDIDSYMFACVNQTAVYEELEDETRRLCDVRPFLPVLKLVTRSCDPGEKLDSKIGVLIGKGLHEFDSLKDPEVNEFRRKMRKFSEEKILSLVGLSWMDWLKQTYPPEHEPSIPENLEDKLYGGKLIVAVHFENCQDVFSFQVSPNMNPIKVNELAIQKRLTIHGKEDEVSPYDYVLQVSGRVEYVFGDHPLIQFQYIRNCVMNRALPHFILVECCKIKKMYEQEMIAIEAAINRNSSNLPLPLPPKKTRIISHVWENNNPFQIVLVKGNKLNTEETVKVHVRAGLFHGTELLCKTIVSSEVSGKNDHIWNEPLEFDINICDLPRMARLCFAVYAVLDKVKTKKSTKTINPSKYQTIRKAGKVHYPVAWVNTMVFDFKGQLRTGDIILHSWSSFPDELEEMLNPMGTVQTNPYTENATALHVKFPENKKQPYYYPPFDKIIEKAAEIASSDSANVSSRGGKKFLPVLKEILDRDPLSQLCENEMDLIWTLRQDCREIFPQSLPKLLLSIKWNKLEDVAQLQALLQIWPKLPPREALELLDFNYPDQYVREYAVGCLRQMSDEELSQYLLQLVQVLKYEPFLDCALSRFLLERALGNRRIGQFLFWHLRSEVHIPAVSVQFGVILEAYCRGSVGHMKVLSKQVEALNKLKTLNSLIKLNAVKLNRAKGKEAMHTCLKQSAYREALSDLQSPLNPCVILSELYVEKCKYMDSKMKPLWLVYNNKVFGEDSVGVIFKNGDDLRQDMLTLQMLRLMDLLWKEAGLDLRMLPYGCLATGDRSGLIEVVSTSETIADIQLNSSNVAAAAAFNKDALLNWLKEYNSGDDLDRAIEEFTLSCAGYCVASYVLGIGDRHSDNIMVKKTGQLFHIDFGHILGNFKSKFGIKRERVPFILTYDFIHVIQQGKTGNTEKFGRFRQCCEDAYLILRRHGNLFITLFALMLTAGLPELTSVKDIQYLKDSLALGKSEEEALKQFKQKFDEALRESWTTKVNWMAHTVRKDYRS

[8] = biological target: T3, Phosphatidylinositol 4,5-bisphosphate 3-kinase catalytic subunit alpha isoform (Homo sapiens, UniProt P42336); experiment: Inhibition of human recombinant PI3Kalpha using PIP2 as substrate at 1 uM after 1 hr by Kinase-Glo luminescent assay
[9] = biological target: T4, Phosphatidylinositol 4,5-bisphosphate 3-kinase catalytic subunit delta isoform (Homo sapiens) (UniProt O00329); experiment: Inhibition of PI3Kdelta (unknown origin) at 1 uM after 1 hr by ADP-Glo luminescent assay
T4 sequence (whole entry): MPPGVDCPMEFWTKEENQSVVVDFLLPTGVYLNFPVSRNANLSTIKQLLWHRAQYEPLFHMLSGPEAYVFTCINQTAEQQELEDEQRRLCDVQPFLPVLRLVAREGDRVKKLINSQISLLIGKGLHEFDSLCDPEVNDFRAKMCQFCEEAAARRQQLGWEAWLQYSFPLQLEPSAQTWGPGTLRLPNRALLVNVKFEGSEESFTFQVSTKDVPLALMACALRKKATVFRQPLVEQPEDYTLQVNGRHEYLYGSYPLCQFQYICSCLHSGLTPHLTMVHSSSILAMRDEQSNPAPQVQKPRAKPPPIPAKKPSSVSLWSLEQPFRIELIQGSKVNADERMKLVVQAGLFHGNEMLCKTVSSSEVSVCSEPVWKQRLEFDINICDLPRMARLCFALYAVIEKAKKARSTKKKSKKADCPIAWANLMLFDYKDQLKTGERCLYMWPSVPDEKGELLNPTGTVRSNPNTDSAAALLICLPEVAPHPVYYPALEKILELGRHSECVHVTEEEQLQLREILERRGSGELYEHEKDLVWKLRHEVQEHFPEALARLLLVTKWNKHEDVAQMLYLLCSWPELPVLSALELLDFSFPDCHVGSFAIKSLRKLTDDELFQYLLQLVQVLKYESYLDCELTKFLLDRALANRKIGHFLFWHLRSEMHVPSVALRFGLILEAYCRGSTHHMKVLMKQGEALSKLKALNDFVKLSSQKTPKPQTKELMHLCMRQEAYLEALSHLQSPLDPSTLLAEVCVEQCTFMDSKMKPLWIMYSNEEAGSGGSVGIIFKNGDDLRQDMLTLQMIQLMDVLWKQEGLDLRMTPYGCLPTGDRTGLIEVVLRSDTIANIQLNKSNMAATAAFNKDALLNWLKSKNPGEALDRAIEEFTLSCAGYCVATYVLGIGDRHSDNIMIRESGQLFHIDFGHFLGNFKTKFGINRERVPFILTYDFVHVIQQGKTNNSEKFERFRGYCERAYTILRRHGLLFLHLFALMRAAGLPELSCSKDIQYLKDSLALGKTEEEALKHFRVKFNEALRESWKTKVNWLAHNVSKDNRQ

[10] = biological target: T5, Phosphatidylinositol 4,5-bisphosphate 3-kinase catalytic subunit gamma isoform (Homo sapiens, UniProt P48736); experiment: Inhibition of human PI3Kgamma at 1 uM after 1 hr by ADP-Glo luminescent assay
Target sequence in this assay (P48736 whole entry, looked up, canonical isoform): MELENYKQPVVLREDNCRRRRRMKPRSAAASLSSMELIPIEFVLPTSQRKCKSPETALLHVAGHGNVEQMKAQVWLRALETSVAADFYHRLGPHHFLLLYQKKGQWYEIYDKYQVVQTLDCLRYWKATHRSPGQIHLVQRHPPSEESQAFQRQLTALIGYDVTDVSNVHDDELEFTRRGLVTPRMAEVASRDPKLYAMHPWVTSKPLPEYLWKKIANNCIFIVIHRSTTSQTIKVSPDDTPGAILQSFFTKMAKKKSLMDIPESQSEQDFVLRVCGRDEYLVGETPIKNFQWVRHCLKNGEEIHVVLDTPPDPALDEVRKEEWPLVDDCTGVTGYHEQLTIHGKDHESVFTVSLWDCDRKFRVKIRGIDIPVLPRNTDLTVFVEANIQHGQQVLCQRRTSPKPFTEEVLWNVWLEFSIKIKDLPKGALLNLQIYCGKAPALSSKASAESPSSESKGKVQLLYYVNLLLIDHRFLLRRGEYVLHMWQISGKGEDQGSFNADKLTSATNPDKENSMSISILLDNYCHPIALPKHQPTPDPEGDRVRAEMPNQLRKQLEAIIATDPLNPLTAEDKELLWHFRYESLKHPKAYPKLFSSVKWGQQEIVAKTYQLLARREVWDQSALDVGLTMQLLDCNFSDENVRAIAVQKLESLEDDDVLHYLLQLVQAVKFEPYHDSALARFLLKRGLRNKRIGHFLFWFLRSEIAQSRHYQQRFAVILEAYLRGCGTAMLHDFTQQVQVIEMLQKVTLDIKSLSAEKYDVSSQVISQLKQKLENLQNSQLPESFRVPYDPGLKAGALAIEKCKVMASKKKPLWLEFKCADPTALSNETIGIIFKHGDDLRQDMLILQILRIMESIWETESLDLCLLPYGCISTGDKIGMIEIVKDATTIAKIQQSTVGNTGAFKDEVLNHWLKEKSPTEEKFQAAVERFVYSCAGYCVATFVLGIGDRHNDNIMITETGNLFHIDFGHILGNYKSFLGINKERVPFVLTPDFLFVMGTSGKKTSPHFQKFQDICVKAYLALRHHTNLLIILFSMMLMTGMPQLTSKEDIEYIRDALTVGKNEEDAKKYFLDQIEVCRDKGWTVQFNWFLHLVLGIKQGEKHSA

MCF7 [11] = experiment: Inhibition of mTORC2 in human MCF7 cells assessed as downregulation of Akt Ser473 phosphorylation at 0.1 uM after 2 hrs by Western blot analysis; assay type: cell-based
mTORC1 (Homo sapiens) [12] = biological target: T6, mTORC1 (Homo sapiens) (UniProt P42345+Q8N122+Q9BVC4); experiment: Inhibition of mTORC1 in human MCF7 cells assessed as downregulation of S6 Ser235 phosphorylation at 0.5 uM after 2 hrs by Western blot analysis; assay type: cell-based
[13] = biological target: T3, Phosphatidylinositol 4,5-bisphosphate 3-kinase catalytic subunit alpha isoform; experiment: Inhibition of human recombinant PI3Kalpha using PIP2 as substrate after 1 hr by Kinase-Glo luminescent assay
mTORC1 (Homo sapiens) [14] = biological target: T6, mTORC1 (Homo sapiens); experiment: Inhibition of mTORC1 in human MCF7 cells assessed as downregulation of S6 Ser235 phosphorylation at 0.1 uM after 2 hrs by Western blot analysis; assay type: cell-based
MCF7 [15] = experiment: Inhibition of mTORC2 in human MCF7 cells assessed as downregulation of Akt Ser473 phosphorylation at 0.5 uM after 2 hrs by Western blot analysis; assay type: cell-based
[16] = biological target: T5, Phosphatidylinositol 4,5-bisphosphate 3-kinase catalytic subunit gamma isoform; experiment: Inhibition of human PI3Kgamma after 1 hr by ADP-Glo luminescent assay
Target sequence in this assay (P48736 whole entry, canonical isoform): as the sequence (P48736 whole entry, looked up, canonical isoform) above

[17] = biological target: T7, Phosphatidylinositol 4,5-bisphosphate 3-kinase catalytic subunit delta isoform (Homo sapiens, UniProt O00329); experiment: Inhibition of PI3Kdelta (unknown origin) after 1 hr by ADP-Glo luminescent assay
T7 sequence (O00329 whole entry): T4 sequence (whole entry)

[18] = biological target: T2, Phosphatidylinositol 4,5-bisphosphate 3-kinase catalytic subunit beta isoform; experiment: Inhibition of PI3Kbeta (unknown origin) after 1 hr by ADP-Glo luminescent assay
Target sequence in this assay (P42338 whole entry, canonical isoform): as the sequence (P42338 whole entry, looked up, canonical isoform) above

[19] = biological target: T1, Serine/threonine-protein kinase mTOR; experiment: Inhibition of human mTOR at 3000 nM using ULight-4E-BP1 peptide as substrate after 1 hr by Lance ultra assay

T6 sequence (Q8N122 whole entry, looked up, other chains not shown, canonical isoform): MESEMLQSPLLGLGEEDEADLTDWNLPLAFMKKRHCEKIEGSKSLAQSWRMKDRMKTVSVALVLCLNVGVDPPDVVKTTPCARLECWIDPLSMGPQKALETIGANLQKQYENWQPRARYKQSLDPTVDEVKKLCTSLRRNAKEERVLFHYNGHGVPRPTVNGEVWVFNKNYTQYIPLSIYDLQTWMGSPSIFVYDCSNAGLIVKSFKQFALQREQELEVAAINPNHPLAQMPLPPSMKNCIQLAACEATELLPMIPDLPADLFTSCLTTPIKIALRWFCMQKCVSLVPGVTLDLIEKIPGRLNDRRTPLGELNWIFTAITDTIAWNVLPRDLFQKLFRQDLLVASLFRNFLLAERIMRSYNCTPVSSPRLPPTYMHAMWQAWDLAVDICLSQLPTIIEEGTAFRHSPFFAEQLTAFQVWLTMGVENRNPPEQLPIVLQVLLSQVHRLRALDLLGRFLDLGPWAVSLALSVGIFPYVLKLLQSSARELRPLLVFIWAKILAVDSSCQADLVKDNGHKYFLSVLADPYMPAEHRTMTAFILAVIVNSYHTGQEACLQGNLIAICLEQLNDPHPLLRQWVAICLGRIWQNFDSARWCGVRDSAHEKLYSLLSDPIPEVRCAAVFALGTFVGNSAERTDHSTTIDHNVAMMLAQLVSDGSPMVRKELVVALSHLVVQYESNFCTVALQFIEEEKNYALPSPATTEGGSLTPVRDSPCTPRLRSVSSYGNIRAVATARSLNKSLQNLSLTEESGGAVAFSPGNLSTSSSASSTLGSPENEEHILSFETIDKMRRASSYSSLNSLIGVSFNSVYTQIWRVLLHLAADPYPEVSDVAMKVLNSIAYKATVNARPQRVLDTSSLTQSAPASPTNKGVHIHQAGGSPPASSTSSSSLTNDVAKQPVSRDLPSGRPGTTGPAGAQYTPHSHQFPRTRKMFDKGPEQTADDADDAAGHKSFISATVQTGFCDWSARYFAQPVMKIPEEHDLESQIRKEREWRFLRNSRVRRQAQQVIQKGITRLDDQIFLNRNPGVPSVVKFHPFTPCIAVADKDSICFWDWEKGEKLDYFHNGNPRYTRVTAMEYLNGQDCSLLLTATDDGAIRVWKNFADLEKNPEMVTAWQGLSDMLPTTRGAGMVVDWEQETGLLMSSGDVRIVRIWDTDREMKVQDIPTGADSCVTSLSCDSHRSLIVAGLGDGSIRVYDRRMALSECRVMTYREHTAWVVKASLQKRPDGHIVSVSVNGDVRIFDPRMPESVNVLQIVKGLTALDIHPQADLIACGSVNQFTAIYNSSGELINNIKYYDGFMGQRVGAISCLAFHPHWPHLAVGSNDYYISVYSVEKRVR
T6 sequence (Q9BVC4 whole entry, looked up, other chains not shown, canonical isoform): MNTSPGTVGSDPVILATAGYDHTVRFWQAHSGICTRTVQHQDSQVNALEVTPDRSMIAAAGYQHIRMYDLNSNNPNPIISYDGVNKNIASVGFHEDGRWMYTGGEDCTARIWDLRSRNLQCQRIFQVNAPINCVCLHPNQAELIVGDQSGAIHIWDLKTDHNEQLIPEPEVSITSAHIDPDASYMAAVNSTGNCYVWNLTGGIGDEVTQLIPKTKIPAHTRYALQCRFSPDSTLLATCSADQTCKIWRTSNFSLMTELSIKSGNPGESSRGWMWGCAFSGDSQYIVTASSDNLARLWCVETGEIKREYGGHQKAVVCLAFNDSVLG
T3 sequence (P42336 whole entry, canonical isoform): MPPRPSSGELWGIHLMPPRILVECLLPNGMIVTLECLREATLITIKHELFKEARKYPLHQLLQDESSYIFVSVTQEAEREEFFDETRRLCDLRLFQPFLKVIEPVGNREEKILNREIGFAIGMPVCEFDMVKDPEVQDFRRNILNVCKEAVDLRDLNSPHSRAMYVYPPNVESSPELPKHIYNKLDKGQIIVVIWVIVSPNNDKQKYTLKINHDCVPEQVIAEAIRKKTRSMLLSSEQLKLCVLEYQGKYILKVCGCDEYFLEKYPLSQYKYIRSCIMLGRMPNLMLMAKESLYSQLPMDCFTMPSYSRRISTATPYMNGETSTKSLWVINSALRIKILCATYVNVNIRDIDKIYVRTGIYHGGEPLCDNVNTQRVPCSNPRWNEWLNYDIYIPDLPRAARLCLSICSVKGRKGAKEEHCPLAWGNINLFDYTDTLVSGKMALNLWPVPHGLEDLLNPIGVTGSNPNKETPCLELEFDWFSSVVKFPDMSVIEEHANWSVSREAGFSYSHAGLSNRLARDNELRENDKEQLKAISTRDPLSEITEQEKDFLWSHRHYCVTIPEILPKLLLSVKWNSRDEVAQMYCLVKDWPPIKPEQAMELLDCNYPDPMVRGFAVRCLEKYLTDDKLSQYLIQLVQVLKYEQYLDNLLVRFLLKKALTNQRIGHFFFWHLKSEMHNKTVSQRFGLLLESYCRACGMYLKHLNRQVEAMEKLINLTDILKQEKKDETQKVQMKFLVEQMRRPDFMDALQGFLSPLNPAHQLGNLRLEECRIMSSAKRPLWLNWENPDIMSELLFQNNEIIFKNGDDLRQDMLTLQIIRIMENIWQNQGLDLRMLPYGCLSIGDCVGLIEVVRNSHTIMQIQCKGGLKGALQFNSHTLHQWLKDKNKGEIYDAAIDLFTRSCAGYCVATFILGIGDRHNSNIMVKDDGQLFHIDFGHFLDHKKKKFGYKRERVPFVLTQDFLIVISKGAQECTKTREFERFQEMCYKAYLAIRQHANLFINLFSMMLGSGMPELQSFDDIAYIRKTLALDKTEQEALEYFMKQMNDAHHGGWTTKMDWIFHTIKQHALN

| SMILES | IC50 (MCF7 [1]) [nM] | IC50 (cells [2]) [nM] | IC50 (cells [3]) [nM] | also measured |
| --- | --- | --- | --- | --- |
| CC(=O)N1CCN(c2ccc(Nc3c(NC(=O)C(C)(C)C)cnc4ccc(-c5cnc6ccccc6c5)cc34)cc2C(F)(F)F)CC1 | 790 | > 10000 | > 10000 |  |
| CC(=O)Nc1cnc2ccc(-c3cnc4ccccc4c3)cc2c1Nc1ccc(N2CCN(S(C)(=O)=O)CC2)c(C(F)(F)F)c1 | 60 | 190 | 430 |  |
| CC(=O)Nc1cnc2ccc(-c3cnc4ccccc4c3)cc2c1Nc1ccc(C(C)(C)C#N)cc1 | 440 | 2560 | 3950 |  |
| CC(=O)Nc1cnc2ccc(-c3cnc4ccccc4c3)cc2c1Nc1ccc(C(F)(F)F)cc1 |  | > 10000 | > 10000 | IC50 [4]: > 3000 nM |
| Cn1c(=O)n(-c2ccc(C(C)(C)C#N)cc2)c2c3cc(-c4cnc5ccccc5c4)ccc3ncc21 [DACTOLISIB] |  | 190 | 140 |  |
| CC(=O)Nc1cnc2ccc(-c3cnc4ccccc4c3)cc2c1Nc1ccc(N2CCNCC2)c(C(F)(F)F)c1.Cl | 110 | 500 | 360 | Stability [5]: Stable; Stability [6]: Stable; Stability (Liver microsome): Stable; inhibition [7]: 1%; inhibition [8]: 42.1%; inhibition [9]: 34.9%; IC50 [4]: 22 nM; inhibition [10]: 47.3% |
| Nc1cnc2ccc(-c3cnc4ccccc4c3)cc2c1Nc1ccc(N2CCNCC2)c(C(F)(F)F)c1 | 470 | 3440 | 1610 |  |
| CC(=O)Nc1cnc2ccc(-c3cnc4ccccc4c3)cc2c1Nc1ccc(N2CCN(C(C)=O)CC2)c(C(F)(F)F)c1 | 40 | 170 | 110 | Activity (MCF7 [11]): Active; Activity (mTORC1 (Homo sapiens) [12]): Active; IC50 [13]: 1500 nM; Activity (mTORC1 (Homo sapiens) [14]): Active; Activity (MCF7 [15]): Active; IC50 [16]: 502 nM; IC50 [17]: 2080 nM; IC50 [18]: > 5000 nM; IC50 [4]: 30 nM |
| CC(C)(C#N)c1ccc(Nc2c(NS(C)(=O)=O)cnc3ccc(-c4cnc5ccccc5c4)cc23)cc1 |  | > 10000 | > 10000 |  |
| CC(C)(C)C(=O)Nc1cnc2ccc(-c3cnc4ccccc4c3)cc2c1Nc1ccc(N2CCNCC2)c(C(F)(F)F)c1 | 300 | 1050 | 640 |  |
| CC(C)(C#N)c1ccc(Nc2c(NC(=O)C(F)(F)F)cnc3ccc(-c4cnc5ccccc5c4)cc23)cc1 | 1360 | > 10000 | > 10000 | inhibition [19]: 92% |
| COc1cc(Nc2c(NC(C)=O)cnc3ccc(-c4cnc5ccccc5c4)cc23)cc(OC)c1 |  | > 10000 | > 10000 | IC50 [4]: > 3000 nM |
| CC(=O)Nc1cnc2ccc(-c3cnc4ccccc4c3)cc2c1Nc1ccc(C#N)cc1 |  | > 10000 | > 10000 | IC50 [4]: > 3000 nM |
| CC(C)(C)C(=O)Nc1cnc2ccc(-c3cnc4ccccc4c3)cc2c1Nc1ccc(C(C)(C)C#N)cc1 |  | > 10000 | > 10000 |  |
| CC(C)(C#N)c1ccc(Nc2c(N(S(C)(=O)=O)S(C)(=O)=O)cnc3ccc(-c4cnc5ccccc5c4)cc23)cc1 |  | > 10000 | > 10000 |  |
| CS(=O)(=O)Nc1cnc2ccc(-c3cnc4ccccc4c3)cc2c1Nc1ccc(N2CCNCC2)c(C(F)(F)F)c1 | 1110 | 5420 | 1450 |  |
| O=C(Nc1cnc2ccc(-c3cnc4ccccc4c3)cc2c1Nc1ccc(N2CCNCC2)c(C(F)(F)F)c1)C(F)(F)F | 320 | 3820 | 1240 |  |
